Experiments:
[1] = system: Reversed passive Arthus reaction; assay: Antiinflammatory action (Reversed passive Arthus reaction); type: in vivo, Jcl: SD rats; conditions: Rattus norvegicus, 1 h; 12.5 mg/kg oral, one hour before the injection of egg albumin; rats; read-out: Inhibition rate, Reversed passive Arthus reaction
Method: (2) Antiinflammatory action (Reversed passive Arthus reaction)
A group consisting of six Jcl: SD rats (7 week old, male was used. The hair of the back of the animals was cut, under ether anesthesia, and 1 ml each of a 0.5% solution of egg albumin in physiological saline solution was injected into the tail vein of each test animal, followed by intradermal injection of 0.1 ml of rabbit anti-egg albumin antiserum at each side of the left and right of the back and a further intradermal injection of 0.1 ml of physiological saline solution at the left side. Three hours later, each animal was intravenously injected with 1 ml of 1% Evans' blue physiological saline solution. Thirty minutes later, the test animals were exfoliated and the area(mm^2) of each of the blue spot was measured. The test sample in a dose of 12.5 mg/kg was orally administered one hour before the injection of egg albumin. By comparing the area(mm^2) of the blue spot in the test group with that of the control group, inhibition rate was determined.

[2] = system: Carrageenin edema; assay: Antiinflammatory action (Carrageenin edema method); type: in vivo, Jcl: SD rats; conditions: Rattus norvegicus; 50 mg/kg oral, one hour before carrageenin; paw volume 3 hours later; rats; read-out: Inhibition rate, Carrageenin edema
Method: (1) Antiinflammatory action (Carrageenin edema method)
Using a group of six Jcl: SD rats (6 week old, male), antiinflammatory action was investigated in accordance with the method of Winter et al. [Proc. Soc. Exp. Biol. Med., 111, 544(1962)]. One hour after the oral administration of 50 mg/kg of a test sample, the animals were injected subcutaneously with 0.05 ml each of a 1% solution of carrageenin in physiological saline solution into a sole. The volume of the hind-paw was measured 3 hours later and compared with that before the injection, and the edema volume was determined from the difference. By comparing the edema volumes of animal groups untreated and treated with test samples, the inhibition rate was determined.

[3] = system: Phenyl quinone writhing; assay: Analgesic action (Phenyl quinone writhing method); type: in vivo, Slc: ICR mice; conditions: Mus musculus, 20 min; 50 mg/kg oral, 30 minutes before phenyl quinone; 20 minutes counting; mice; read-out: Inhibition rate, Phenyl quinone writhing
Method: Analgesic action (Phenyl quinone writhing method)
Using a group of 10 Slc: ICR mice (4 week old, male), analgesic action was investigated in accordance with the method of Siegmund et al. [Proc. Soc. Exp. Biol. Med., 95, 729(1957)]. A test sample in a dose of 50 mg/kg was orally administered, and 30 minutes later, a 0.02% aqueous phenyl quinone solution was intraperitoneally injected in the proportion of 0.1 ml relative to 10 g of body weight. Over the period of 20 minutes from the injection, the number of writhings was counted for the individual animals. By comparing the untreated and treated animal groups for the number of reactions, the writhing inhibition rate was determined.

[4] = system: acute hepatic failure due to P. acnes-LPS; assay: Effect against acute hepatic failure due to P. acnes-LPS (anti-lethal effect); type: in vivo, BALB/c mice; conditions: 0.3 mg/kg, p.o., one hour prior to LPS, 48 hours later; for Anti-lethal effect: Number of dead mice: group of 10, control 10 dead
Method: A group of 10 BALB/c mice (7 week old, male) was used. Each mouse was injected into the tail vein with P. acnes killed by heating at a dose of 1 mg/mouse. Seven days later, each mouse was injected intravenously with LPS(1 l μg/mouse) derived from Salmonella enteritidis to cause acute hepatic failure. Usually, in a group of mice intravenously injected with LPS, 90% to 100% of the animals die within 24 hours. Using this model, each compound was tested. Each compound(I) shown in Table 2 was suspended in a 5% gum arabic vehicle and was orally administered to the animals at 0.3 mg/kg one hour prior to the injection of LPS, and then 48 hours later, the number of the dead mice was determined. The mice in the control group were orally given the 5% gum arabic vehicle one hour prior to LPS administration.

[5] = system: Jcl: ICR mice; conditions: mouse, in vivo
Method: A group of 5 Jcl: Wistar rats (5 week old, 90-110 g body weight, Japan Clea, male) and a group of 5 Jcl: ICR mice (5 week old, 25-30 g body weight, Japan Clea, male) were used. These rats were each administerred orally with 10 ml/kg of the test compound (250 mg/kg), while these mice were each administered orally with 20 ml/kg of the test compound (500 mg/kg).
These oral administrations were made on the form of a suspension in 5% gum arabic vehicle. One week later, the number of dead animals was observed.

CCCCn1c(=O)n(CCC)c(=O)c2c3n(nc21)CCN3 [compound 2]
inhibition in vivo at 12.5 mg/kg [1]: 65%
inhibition in vivo at 50 mg/kg [2]: 103%
inhibition in vivo at 50 mg/kg [3]: 100%

CCn1c(=O)c2c3n(nc2n(CC)c1=O)CCN3 [compound 7]
inhibition in vivo at 12.5 mg/kg [1]: 42%
inhibition in vivo at 50 mg/kg [2]: 99%
inhibition in vivo at 50 mg/kg [3]: 52%

CCCn1c(=O)c2c(nn3cc[nH]c23)n(CCC)c1=O [compound 44]
Anti-lethal effect: effective ratio [4]: 100%
Anti-lethal effect: Number of dead mice [4]: 0
inhibition in vivo at 12.5 mg/kg [1]: 91%
inhibition in vivo at 50 mg/kg [2]: 90%
inhibition in vivo at 50 mg/kg [3]: 96%

CCCCn1c(=O)c2c3n(nc2n(CCCC)c1=O)CCN3 [compound 3]
inhibition in vivo at 12.5 mg/kg [1]: 68%
inhibition in vivo at 50 mg/kg [2]: 100%
inhibition in vivo at 50 mg/kg [3]: 98%

CCCn1c(=O)c2c3n(nc2n(CC)c1=O)CCN3 [compound 10]
inhibition in vivo at 12.5 mg/kg [1]: 36%
inhibition in vivo at 50 mg/kg [2]: 100%
inhibition in vivo at 50 mg/kg [3]: 87%

CCCCn1c(=O)c2c(nn3cc[nH]c23)n(CCCC)c1=O [compound 46]
Anti-lethal effect: effective ratio [4]: 80%
Anti-lethal effect: Number of dead mice [4]: 2
inhibition in vivo at 12.5 mg/kg [1]: 70%
inhibition in vivo at 50 mg/kg [2]: 90%
inhibition in vivo at 50 mg/kg [3]: 96%

CCCCCn1c(=O)n(CCC)c(=O)c2c1nn1cc[nH]c21 [compound 50]
Anti-lethal effect: effective ratio [4]: 90%
Anti-lethal effect: Number of dead mice [4]: 1
inhibition in vivo at 12.5 mg/kg [1]: 79%
inhibition in vivo at 50 mg/kg [2]: 78%
inhibition in vivo at 50 mg/kg [3]: 89%

C=CCn1c(=O)c2c3n(nc2n(CC=C)c1=O)CCN3 [compound 29]
inhibition in vivo at 12.5 mg/kg [1]: 73%
inhibition in vivo at 50 mg/kg [2]: 79%
inhibition in vivo at 50 mg/kg [3]: 80%

C=CCn1c(=O)n(CCC)c(=O)c2c1nn1cc[nH]c21 [compound 49]
Anti-lethal effect: effective ratio [4]: 70%
Anti-lethal effect: Number of dead mice [4]: 3
inhibition in vivo at 12.5 mg/kg [1]: 88%
inhibition in vivo at 50 mg/kg [2]: 80%
inhibition in vivo at 50 mg/kg [3]: 80%

CCCCCn1c(=O)n(CCC)c(=O)c2c3n(nc21)CCN3 [compound 6]
inhibition in vivo at 12.5 mg/kg [1]: 71%
inhibition in vivo at 50 mg/kg [2]: 105%
inhibition in vivo at 50 mg/kg [3]: 96%

C=CCn1c(=O)n(CCC)c(=O)c2c3n(nc21)CCN3 [compound 18]
inhibition in vivo at 12.5 mg/kg [1]: 87%
inhibition in vivo at 50 mg/kg [2]: 93%
inhibition in vivo at 50 mg/kg [3]: 90%

CCCCn1c(=O)n(CCC)c(=O)c2c3n(nc21)CCN3C [compound 1]
inhibition in vivo at 12.5 mg/kg [1]: 32%
inhibition in vivo at 50 mg/kg [2]: 70%
inhibition in vivo at 50 mg/kg [3]: 97%

C=CCn1c(=O)c2c(nn3cc[nH]c23)n(CC=C)c1=O [compound 45]
Anti-lethal effect: effective ratio [4]: 100%
Anti-lethal effect: Number of dead mice [4]: 0
inhibition in vivo at 12.5 mg/kg [1]: 74%
inhibition in vivo at 50 mg/kg [2]: 85%
inhibition in vivo at 50 mg/kg [3]: 87%

CCCCn1c(=O)n(CCC)c(=O)c2c3n(nc21)CCN3C(C)=O [compound 40]
number of dead animals, Mice [5]: 0
inhibition in vivo at 12.5 mg/kg [1]: 69%
inhibition in vivo at 50 mg/kg [2]: 82%
inhibition in vivo at 50 mg/kg [3]: 89%

CCCn1c(=O)c2c(nn3cc[nH]c23)n(CC(C)C)c1=O [compound 48]
Anti-lethal effect: effective ratio [4]: 90%
Anti-lethal effect: Number of dead mice [4]: 1
inhibition in vivo at 12.5 mg/kg [1]: 93%
inhibition in vivo at 50 mg/kg [2]: 95%
inhibition in vivo at 50 mg/kg [3]: 91%

CCCCn1c(=O)n(CCC)c(=O)c2c1nn1cc[nH]c21 [compound 43]
Anti-lethal effect: effective ratio [4]: 100%
Anti-lethal effect: Number of dead mice [4]: 0
inhibition in vivo at 12.5 mg/kg [1]: 90%
inhibition in vivo at 50 mg/kg [2]: 109%
inhibition in vivo at 50 mg/kg [3]: 89%

CCCn1c(=O)c2c3n(nc2n(CCC)c1=O)CCN3C(=O)CC [compound 33]
inhibition in vivo at 12.5 mg/kg [1]: 87%
inhibition in vivo at 50 mg/kg [2]: 87%
inhibition in vivo at 50 mg/kg [3]: 77%

CCCn1c(=O)c2c3n(nc2n(CCC(C)C)c1=O)CCN3 [compound 17]
inhibition in vivo at 12.5 mg/kg [1]: 73%
inhibition in vivo at 50 mg/kg [2]: 83%
inhibition in vivo at 50 mg/kg [3]: 79%

CCCn1c(=O)c2c3n(nc2n(CCC)c1=O)CCN3 [compound 13]
number of dead animals, Mice [5]: 0
inhibition in vivo at 12.5 mg/kg [1]: 65%
inhibition in vivo at 50 mg/kg [2]: 97%
inhibition in vivo at 50 mg/kg [3]: 95%
